Legend:
NCI-H295R cells = assay: Lipidomic analysis (LC-MS/MS) of mitochondrial fractions of NCI-H295R cells treated with SC-26196; assay type: cell-based, Human; settings: SC-26196 10 µM, 18 h vs DMSO
Experimental: NCI-H295R cells (obtained from ATCC Cat# CRL-2128) were maintained in DMEM/F12 medium supplemented with 2.5 % Nu-Serum type I (Corning), 1 % Insulin Transferrin Selenium (ITS; Gibco), 50 U/mL penicillin and 50 µg/mL streptomycin. They were treated for 18 h with 10 µM SC-26196 or DMSO. In some experiments, NCI-H295R cells were treated or not for 48 h 66 µM EPA and in the last 24 h they were stimulated or not with forskolin (10 µM; Sigma-Aldrich).
Cells were trypsinized and pelleted by centrifugation (500xg, 5 min, 4 °C). The cells were gently resuspended in homogenization buffer (200 mM mannitol, 50 mM sucrose, 10 mM KCI, […] 25 mM HEPES, pH 7.4, 1 µM aprotinin, 10 µM leupeptin, 20 µM PMSF) and homogenized on ice with 20 strokes of tight Dounce homogenizer. The samples were then centrifuged (800xg, 10 min, 4 °C) to pellet the nuclei. The supernatant was mixed with iodixanol solution (Optiprep, Sigma-Aldrich) to a final concentration of 20 %. The samples were placed at the bottom of a tube and overlaid with 500 µl iodixanol solutions (18 %, 16 %, 14 %, 12 %, 10 %, 5 %) and finally with 500 µl of HBS (50 mM HEPES, 150 mM NaCl, pH 7.4). The samples were centrifuged in Beckman SW60Ti swing-out rotor (45,000 rpm, 5 h, 4 °C). After centrifugation fifteen 280 µl aliquots were collected from top of the tubes.
Fractions 10-12 (SDHB-positive) and 4-5 (HSL-positive) were considered as mitochondrial and lipid droplet fractions, respectively. Protein concentration was measured in the mitochondrial and lipid droplet pools with the BCA Protein Assay Kit (Thermo Fisher) and fractions were analyzed for cholesterol and CE concentrations.
Fractions containing mitochondria were combined and extracted with three volumes of ice-cold chloroform/methanol (10:1, v/v, both containing 0.1 % butylated hydroxytoluene (Merck, ≥99 %)). Samples were incubated on ice for 15 min, before the organic phase was collected after centrifugation (5 min, 5,000 × g). The aqueous phase was re-extracted with two volumes chloroform/methanol as described above. Combined organic phases were dried in vacuo. Methanol (ULC-MS grade, Biosolve B.V.) and chloroform (EMSURE ACS, ISO, Reag. Ph Eur; Supleco) were of highest purity.
Lipid extracts were dissolved in 50 µL 2-propanol (ULC/MS-CC/SFC grade, >99.95 %; Biosolve B.V.) and analyzed by LC-MS/MS. Lipids (2.5 µL loaded in positive mode, 5 µL in negative mode) were separated by reverse phase chromatography (Accucore C30 column; 150 mm × 2.1 mm 2.6 µM 150 Å, Thermo Fisher Scientific) using a Vanquish Horizon UHPLC system (Thermo Fisher Scientific) coupled on-line to a Q Exactive Plus Hybrid Quadrupole Orbitrap mass spectrometer (Thermo Fisher Scientific, Bremen, Germany) equipped with a HESI source. Column was operated at 50 °C and flow rate of 0.3 mL/min. […]

[1] = tested on: primary adrenocortical cells; assay: Flow cytometry with Mitotracker Green and TMRE in primary adrenocortical cells treated with SC-26196; assay type: cell-based, WT C57BL/6J mice; settings: SC-26196 10 µM, 18 h vs DMSO; n=6
Experimental: Adrenocortical cells (CD31-CD45-) were treated for 18 h with DMSO or SC-26196 (10 µM) and were then incubated with Mitotracker Green (0.25 µM; Invitrogen), TMRE (2.5 µM; Thermofisher), for 30 min at 37°C in FACS buffer (0.5 % BSA, 2 mM EDTA in PBS) in dark. Live cells were selected by DAPI staining. FACS was performed using LSR Fortessa X20 flow cytometer and data were analyzed with the FlowJo software.

SMILES: N#CC(CCCN1CCN(/N=C/c2cccnc2)CC1)(c1ccccc1)c1ccccc1 [SC-26196]
- abundance of PC and PE containing PUFA acyl chains in mitochondrial fractions (NCI-H295R cells): reduced
- lipids with saturated or monounsaturated acyl chains in mitochondrial fractions (NCI-H295R cells): increased
- mitochondrial lipidome (PCA) (NCI-H295R cells; n=3): reprogramed the mitochondrial lipidome
- Cardiolipins in mitochondrial fractions (NCI-H295R cells; not shown): remained unaffected
- mitochondrial load (Mitogreen staining) [1]: decreased
- mitochondrial membrane potential (TMRE staining) [1]: decreased

Source: EP4458352A1, “EICOSAPENTAENOIC ACID ESTER DERIVATIVES FOR THE TREATMENT OF OBESITY” (Technische Universität Dresden, priority 2023, dated 2024)
